Reference: patent US11376307B2, “Compositions and methods of treating cancer with glycomimetic peptides” (SUSAVION BIOSCIENCES, INC., priority 2018, dated 2022)
“Also recorded” adds a separate entry of the source. Where two headings read alike, the source gives them in different places.

Legend:
[1] = test system: ID8 ovarian cancer cell line; assay: Murine model of ovarian cancer, sv6D and paclitaxel
Method: Combination study of sv6D and paclitaxel. (FIG. 8A) Female C57BL/6 mice were implanted with ID8 ovarian cancer cell line. […] Body weights of mice are shown as measured on day 58, after two weeks of alternate-day subcutaneous treatment with sv6D (0.1 nmol/g) or 3 intraperitoneal doses (days 45, 47 and 49) of 18 μg/g paclitaxel in cremophor. […] (FIG. 8B) Alternate-day injections of sv6D were initiated on day 50 with peptide alone or on day 100 to mice that were previously treated with paclitaxel between day 45 and 49. […] (FIG. 8C) Kaplan-Meier survival curves for mice treated with paclitaxel, sv6D or a combination of the two in which alternate-day subcutaneous injections of sv6D was started 50 days after paclitaxel treatment.
Cells of an ovarian epithelial cancer line, ID8 [110], were implanted into the peritoneal cavity of female C57BL/6 mice at a dose of 6×10^6 cells. All animals were weighed at least weekly throughout these studies. Accumulation of ascites was monitored by increase in body weight, and animals were euthanized when end-stage behavior was expressed. […] Kaplan-Meier survival curves were analyzed by the Mantel-Cox log-rank test.
A murine ovarian cancer cell line (ID8) was implanted into the peritoneal cavity of C57BL/6 female mice on day 0. […] Progression of the cancer was monitored by body weight of animals as an indication of ascites accumulation.

ASGPR-1 = molecular target: T1, ASGPR-1 (Homo sapiens, UniProt P07306); details: ref [49]; cited from earlier work
T1 sequence (P07306 1-291): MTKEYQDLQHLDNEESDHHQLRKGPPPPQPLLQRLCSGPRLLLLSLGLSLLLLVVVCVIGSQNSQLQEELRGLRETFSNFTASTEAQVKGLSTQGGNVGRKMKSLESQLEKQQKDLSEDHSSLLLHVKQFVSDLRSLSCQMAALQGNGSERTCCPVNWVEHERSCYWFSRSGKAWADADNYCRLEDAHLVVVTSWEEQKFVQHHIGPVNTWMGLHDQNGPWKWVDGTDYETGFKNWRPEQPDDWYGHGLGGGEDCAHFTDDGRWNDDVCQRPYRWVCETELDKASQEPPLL

human ASGPR-1 = molecular target: T2, human ASGPR-1 (Homo sapiens, UniProt P07306); assay: Solid-phase binding assay with recombinant receptors
T2 construct: The extracellular domains of receptors, which were fused with the Fc domain of immunoglobulin IgG; purchased R&D Systems
T2 sequence (P07306 62-291 limits assumed): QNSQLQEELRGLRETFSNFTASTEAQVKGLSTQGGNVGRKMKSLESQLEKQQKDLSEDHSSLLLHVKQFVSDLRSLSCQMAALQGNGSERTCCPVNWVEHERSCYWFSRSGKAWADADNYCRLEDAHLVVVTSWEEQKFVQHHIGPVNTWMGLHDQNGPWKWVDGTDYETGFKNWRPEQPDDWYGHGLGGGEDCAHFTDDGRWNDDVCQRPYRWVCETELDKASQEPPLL
Method: (§1) Binding Assays Solid-phase binding assays were performed with streptavidin-, protein A/G-, or Nickel-coated microtiter plates (Pierce). His-tagged or Fc-fusion recombinant receptors (R&D Systems, Minneapolis, Minn.) were reconstituted in PBS. Sufficient receptors were added to wells to saturate the coating. His-tagged receptors were added to each well at a 5-fold excess over the stated capacity of the Ni coating to minimize non-specific binding of the peptide. Wells were washed three times with binding buffer (25 mM Tris HCl, pH 7.4, 150 mM NaCl, 0.05% Tween-20) to remove unbound receptor and 50 μL of 2 μM biotinylated peptide in binding buffer were added and allowed to incubate for 1 h. The wells were washed four times with binding buffer and then incubated with 50 μL of 1 μg/mL streptavidin conjugated with peroxidase (Sigma-Aldrich) for 1 h. The wells were washed five times with binding buffer and 50 μL of peroxidase substrate (1-Step™ Ultra TMB, Pierce) were added. After several minutes to allow color development, the reaction was stopped with 50 μL 1 M H3PO4 and absorbance was measured at 450 nm. Bound streptavidin was quantitated by the specific activity of peroxidase (absorbance/ng protein conjugate/min) under the conditions of the assay.
(§2) Solid-phase binding assays were performed with recombinant human receptors. Three variations of the binding assay were used in this study, all of which allowed the arms of the tetravalent peptide to have full flexibility. (i) Biotinylated peptide was bound in microtiter wells coated with streptavidin and incubated with recombinant human receptors. After extensive washing, the bound receptor was measured by peroxidase conjugated to a receptor-specific antibody. (ii) The extracellular domains of receptors, which were fused with the Fc domain of immunoglobulin IgG, were bound in wells coated with protein A/G. Biotinylated peptide was incubated with the receptors and, after extensive washing, bound peptide was measured with streptavidin conjugated with peroxidase. Or (iii), recombinant receptors with a poly-His tag were bound to Nickel-coated wells and incubated with biotinylated peptide. svL4 and sv6D contain His residues (FIGS. 1A, 1C) and can bind to the Ni coating, which was minimized by adding sufficient poly-His-tagged receptor to saturate the Ni coating.

STING protein = STING protein (Homo sapiens, UniProt Q86WV6); details: refs [108,109]; cited from earlier work
STING pathway = assay: THP1-Dual reporter cells, secreted luciferase; type: cell-based, human; details: medium of THP1 reporter cells
Method: FIGS. 12A-12B. Conjugation with cyclic dinucleotide. (FIG. 12A) The cyclic dinucleotide, c[G(2′,5′)p-2′-AHC-A(3′,5′)p] (CDN, AHC=6-aminohexylcarbamoyl), was conjugated to N-acetylated-sv6D by a carbodiimide reaction. (FIG. 12B) The conjugate delivers the activation factor at much lower concentrations. Human THP1 monocytes, engineered to detect activation of the type 1 IFN pathway (THP1-Dual™ Cells, InvivoGen, San Diego, Calif.), were incubated 20 hours with sv6D in RPMI 1640 medium containing 10% fetal bovine serum after adding the peptide CDN conjugate. The medium was recovered and then incubated with the luciferase detection reagent (Quanti-Luc™, InvivoGen) to assay for luciferase secreted in response to activation of the STING pathway. Photons were detected with a spectrofluorometer. […] The conjugate targets M2 macrophages and tumor cells that express CLEC10A and thus would produce IFN-β within the tumor microenvironment. […]
The ability of sv6D-CDN conjugates to induce activation of the STING pathway for production of type 1 interferons (IFN-α/β) was tested by incubating human THP1 monocytes that were genetically engineered as reporter cells (InvivoGen, San Diego, Calif.), with the conjugate. […] However, luciferase was detected in the medium of cells incubated with nanomolar concentrations of sv6D-CDN conjugate.

[2] = ref [90], cited from earlier work
[3] = molecular target: T3, recombinant human CLEC10A (Homo sapiens, UniProt Q8IUN9); assay: Solid-phase binding assay with recombinant receptors; details: biotinylated tetravalent peptide
T3 construct: The extracellular domains of receptors, which were fused with the Fc domain of immunoglobulin IgG; purchased R&D Systems
T3 sequence (Q8IUN9 61-316 limits assumed): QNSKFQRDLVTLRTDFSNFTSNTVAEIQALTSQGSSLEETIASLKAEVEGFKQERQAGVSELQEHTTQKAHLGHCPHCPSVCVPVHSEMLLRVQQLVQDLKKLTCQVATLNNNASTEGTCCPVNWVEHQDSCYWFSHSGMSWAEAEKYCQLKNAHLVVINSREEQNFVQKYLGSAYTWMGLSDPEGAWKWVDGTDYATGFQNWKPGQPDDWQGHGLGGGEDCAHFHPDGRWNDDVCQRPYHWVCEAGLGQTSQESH
Method: as §1, §2

peritoneal immune cells = assay: Expansion of peritoneal cells after subcutaneous injection, flow cytometry; type: in vivo, C57BL/6 mice; details: 1 nmol/g s.c. on days 0, 2, 4; cells 24 h after each injection
Method: FIGS. 7A-7D. Expansion of peritoneal cells in C57BL/6 mice. Mice were injected subcutaneously at a dose of 1 nmol/g body weight of svL4, sv6D or svC1. Cells in each population recovered in a peritoneal lavage are expressed as cell counts (in thousands). Cells from three mice in each treatment group were pooled for analysis. The number of cells in each population was normalized to the average recovery of total cells from all groups. For each cell type, the left-hand, middle and right-hand set of bars represent samples from mice treated with svL4, sv6D or svC1, respectively. Mice were injected on days 0, 2 and 4, and cells were collected 24 h after each injection. Day 1, open bar; day 3, grey bar; day 5, black bar. Populations that express activation markers are indicated by an asterisk.
Flow Cytometry Healthy C57BL/6 male mice, 10 weeks old, were injected subcutaneously with peptides on alternate days. Peritoneal cells were isolated from mice 24 h after dosing by injecting ice cold PBS (containing 3% FBS) into the peritoneal cavity, gently massaging the abdomen, and then collecting the fluid, which was transferred into K2EDTA-treated tubes for evaluation of specific biomarkers. Cells from three mice in each group were pooled, counted and divided among FACS tubes (1×10^6 cells per tube). Cells were washed once in PBS containing 3% FBS, then stained with 0.25 to 1 μg of fluorescently conjugated antibody per 10^6 cells in 100 μL of buffer as recommended by the manufacturer (Table 1).
Cells were incubated with the antibodies for 30 min at 4° C. in the dark. Following staining, the cells were washed two times with PBS/3% FBS and immediately analyzed with a MACSQuant flow cytometer (Miltenyi Biotech, Inc., San Diego, Calif.). Compensation was performed using single stain tubes for each color present in the analysis as well as an unstained control sample. Collection of flow cytometric data and analysis with FlowJo software, version 10.0.6 (FlowJo, LLC, Ashland, Oreg.) were performed by Biomodels LLC (Watertown, Mass.).
To examine whether increases occurred in mature immune cells, peritoneal cells from Balb/c and C57BL/6 mice were analyzed by flow cytometry after cells were stained with the markers listed in Table 1. […] To explore this observation more extensively, svL4 or sv6D was injected into C57BL/6 mice on day 0, 2 or 4. Peritoneal cells were examined by flow cytometry 24 h after each injection. Shown in FIGS. 7A-7D are results expressed as cell counts for F4/80 CD11b CD86 (mature, active macrophages); CD11c (DCs); CD11c CD86 (activated DCs); CD4 CD69 (activated T cells); CD8 CD69 (activated cytotoxic T cells); NK1.1 CD3^+ CD69 (activated NKT cells); NK1.1 CD3^− CD69 (activated NK cells); CD19 (B cells); and CD19 CD73 CD80 CD273 (memory B cells). The numbers of these mature, activated cells continued to increase with each injection.

[4] = photodynamic, read-out: IC50 concentration for cell killing

Chain of STING protein (Q86WV6 whole entry): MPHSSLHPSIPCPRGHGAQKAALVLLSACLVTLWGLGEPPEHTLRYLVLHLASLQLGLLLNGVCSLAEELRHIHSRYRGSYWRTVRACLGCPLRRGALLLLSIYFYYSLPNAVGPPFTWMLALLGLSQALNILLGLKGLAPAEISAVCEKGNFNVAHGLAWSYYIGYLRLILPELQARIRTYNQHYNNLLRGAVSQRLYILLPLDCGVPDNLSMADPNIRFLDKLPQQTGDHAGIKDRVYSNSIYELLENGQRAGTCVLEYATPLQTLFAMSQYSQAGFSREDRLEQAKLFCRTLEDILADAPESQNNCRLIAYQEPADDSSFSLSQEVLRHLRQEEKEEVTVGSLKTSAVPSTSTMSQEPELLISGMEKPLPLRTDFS

## CC(=O)O[C@H]1C(=O)[C@@]2(C)[C@H]([C@H](OC(=O)c3ccccc3)[C@]3(O)C[C@H](OC(=O)[C@H](O)[C@@H](NC(=O)c4ccccc4)c4ccccc4)C(C)=C1C3(C)C)[C@]1(OC(C)=O)CO[C@@H]1C[C@@H]2O [paclitaxel, reference compound]
[1]; single agent, sv6D 0.1 nmol/g, control median end-stage day 122
  Median survival: approximately 141 days
[1]; treatment from day 45, sv6D 0.1 nmol/g s.c. alternate days, paclitaxel 18 μg/g i.p. x3
  Body weight (ascites accumulation) after two weeks of treatment: had not significantly increased

## Asialofetuin: a multi-glycosylated protein [reference compound]
ASGPR-1
  IC50: 45.6 ± 2.7 µM
Human ASGPR-1; asialofetuin at 75 μM, svL4 0.2 μM
  Inhibition of binding of svL4 to ASGPR-1: 53%

## c[G(2′,5′)p-2′-AHC-A(3′,5′)p] [CDN]
STING protein
  Kd: ~5 µM
STING pathway
  Concentration range needed to detect luciferase activity: micromolar concentrations
STING pathway; listed as cyclic dinucleotides
  Concentration range needed to detect luciferase activity: micromolar range

## chlorin p6
[2]; exposed to red light, read-out: IC50 for photosensitized cell killing
  IC50: 30 nM
[2]; [4]
  IC50: ~10 nM

## purpurin-18
[2]; [4]
  IC50: ~10 nM

## svC1: subset of svL4: the N-terminal half of the sequence; does not bind CLEC10A, used as control (VQATQSGGGS)
[3]
  Binding to CLEC10A: near the level of blank wells; also recorded: does not bind
Human ASGPR-1; biotinylated tetravalent peptide
  Binding to ASGPR-1: near the level of blank wells
Peritoneal immune cells
  Change in mature, active peritoneal immune cell populations: did not increase significantly
